Experimental data taken from patent US12516060B2, “Solid freebase forms of 5-chloro-2-(4-((2-hydroxy-2-methylpropyl)amino)pyrido[3,4-d]pyridazin-1-yl)phenol for inhibiting NLRP3 and uses thereof” (Ventus Therapeutics U.S., Inc., priority 2023, dated 2026).

Assays:
Format in all cases: physicochemical
[1] = Solvent addition to Amorphous freebase
[2] = Thermal treatment of solid forms; details: held 10 min; for XRPD after thermal treatment to 210° C.: 30 to 210° C. at 10° C./min, cooled to 30° C.
Description: Thermal treatment of the Amorphous freebase was carried out. 10 mg of amorphous Compound 1 freebase was weighed into a 100 μL DSC pan. The pan was heated at a rate of 10° C./min to 200° C., held at 200° C. for 10 min, then cooled at a rate of 20° C./min to 25° C. Data not shown. The resulting solids were brittle and dark-orange. The solids sampled for XRPD, NMR, and HPLC purity analysis indicated decomposition of Compound 1 freebase rather than maintaining the amorphous state or conversion to a crystalline form.
Thermal treatment of Form III freebase to 210° C. was carried out. Approximately 5 mg of Form III freebase was weighed into a DSC pan. The sample was heated from 30° C. to 210° C. at a rate of 10° C./min, held at 210° C. for 10 min, then cooled from 210° C. to 30° C. at a rate of 20° C./min. […] Data not shown. The peaks at 16.2 °2θ and 20.1 °2θ may have been due to trace amounts of Form II freebase (Example 3).
Thermal treatment of Form IV freebase to 210° C. was carried out. Approximately 5 mg of Form IV freebase was weighed into a DSC pan. The sample was heated from 30° C. to 210° C. at a rate of 10° C./min, held at 210° C. for 10 min, then cooled from 210° C. to 30° C. at a rate of 20° C./min.

[3] = Dynamic Vapor Sorption (DVS); details: for water uptake, weight gain between 5-95% relative humidity (RH) / hygroscopicity: DVS; for DVS mass change 5-95% RH (wt. %) / water uptake, weight gain between 5-95% relative humidity (RH): 5-95% RH; for hygroscopicity: all adsorbed water lost during the drying cycle; for XRPD pre- and post-DVS: form stability after DVS cycle
Description: DVS was performed using TA Instruments Q5000SA. The sample (5-15 mg) was loaded into a metallic quartz sample pan, suspended from a microbalance, and exposed to a humidified stream of nitrogen gas. Weight changes were relative to a matching empty reference pan opposite the sample, suspended from the microbalance. The sample was held for a minimum of 10 min at each level and only progressed to the next humidity level if there was <0.002% change in weight between measurements (interval: 5 s) or 45 min had elapsed (for 5-65% RH) or 2 h had elapsed (for 80 and 95% RH). Mass change by DVS is related to hygroscopicity.

[4] = First set of competitive slurry experiments (Form I-IV freebases); details: for relative stability of Forms I-IV freebases: five solvent systems; for evidence of form by XRPD after 2 days: slurries seeded with Forms I-IV, RT or 50° C., all experiments
Description: Competitive slurry experiments were carried out with Form I-IV freebases at two temperatures, room temperature (RT) and 50° C., in five solvents/solvent systems. First, saturated solutions of Form I freebase (Example 2) were prepared at each temperature in each solvent system. To make the saturated solutions, Form I freebase was added to 2 mL of solvent already stirring at the desired temperature, either room temperature (RT) or at 50° C. Once a thin slurry was observed, the samples were left to equilibrate overnight. After stirring overnight, the stir bars were removed to allow the solids to settle, and the supernatant was pipetted into clean 4 mL vials containing a 10 mm stir bar.
The supernatant was then left to stir for an additional 15 min prior to adding seeds (approximately 5 mg per form, pre-weighed) of the following patterns: Form I freebase (Example 2), Form II freebase (Example 3), Form III freebase (Example 4) and Form IV freebase (Example 5). Samples of the slurries were plated for XRPD analysis immediately after seeding. The slurries were then sampled again after 2 days and 7 days at the respective temperatures.

[5] = Solid form stability studies, 75% RH at 40° C. for one week (XRPD and HPLC); details: for XRPD (tested material): 75% ± 5% RH at 40° C. ± 2° C. for 1 week; for Purity % a/a (tested material) / Purity % a/a (input material): HPLC; for Purity % a/a (tested material): after 75% ± 5% RH at 40° C. ± 2° C. for 1 week; for Purity % a/a (input material): before stability test
Description: Solid form stability studies were performed on Form I-V freebase forms by weighing approximately 10-15 mg of the crystalline material into 4 mL vials and covering with a lab grade task wipe (Kimwipe). These vials were placed inside a stability chamber set at 75%±5% relative humidity (RH) at 40° C.±2° C., where they were left for one week (7 full days). The retrieved material was then analyzed by XRPD and HPLC. In each case, the initial material and tested material were identical by XRPD, with the exception of Form I freebase, where an extra peak at 5.8 °2θ in the initial material was absent after the stability test. HPLC purities of the tested material were essentially unchanged from those of the initial material.

[6] = Dry and solvent-drop milling of Form I freebase; details: 16 s at 3500 rpm
Description: Dry and solvent-drop milling on pure-phase Form I freebase was performed using a ball mill with ¼ inch stainless steel ball as milling media. Approximately 30-35 mg of Form I freebase was weighed into a milling capsule and 1 vol. of solvent (solvent drop) was added. The milling was carried out for 16 s at 3500 rpm. Overall, no new patterns were identified from dry and solvent-drop milling experiments. […] Loss of crystallinity was most evident in the dry-milled sample, though Form I freebase pattern was still readily distinguished.

[7] = Drying of Patterns overnight at 50° C.; details: XRPD
Description: For fast-cooling crystallization, Form I freebase was obtained from methanol (MeOH), MeOH:water (9:1 vol.), ethanol (EtOH):water (9:1 vol.), ethyl acetate (EtOAc):N,N-dimethylformamide (DMF) (9:1 vol.), and EtOH:tetrahydrofuran (THF) (3:7 vol.). Form II freebase (Example 3) was obtained from THF, and from acetonitrile:dimethylformamide (DMF) (9:1 vol.) as a mixture with Form I freebase. Pattern C (Example 7) was obtained from isopropanol (IPA):water (9:1 vol.) at −20° C.
Pattern B (Example 7) was obtained from dimethylacetamide (DMAc)/methyl isobutyl ketone (MIBK) after standing overnight at −20° C. […] A mixture of Form III freebase (Example 4) (major) and Form I freebase (minor) was obtained from the direct addition of water into dimethylsulfoxide (DMSO). The ratio of the two patterns was unchanged after drying in vacuo at 50° C. for 4 h. Reverse addition (DMSO/water) gave Form III freebase (Example 4) alone, with no evidence of Form I freebase. Reverse antisolvent addition (dimethylacetamide (DMAc)/water or N-methylpyrrolidone (NMP)/water) gave Form IV freebase (Example 5).
Pattern B freebase was obtained from dimethylacetamide (DMAc)/methyl isobutyl ketone (MIBK) after standing overnight at −20° C. See Example 2, Table 2B. […] The XRPD of Pattern B freebase, taken before drying, is provided in FIG. 7C, and the corresponding signal list is provided in Table 7B.
Pattern C freebase was obtained from isopropanol (IPA):water (9:1 vol.) at −20° C.

| Structure (SMILES) | DVS mass change 5-95% RH (wt. %) [3] [wt. %] | water uptake, weight gain between 5-95% relative humidity (RH) [3] | hygroscopicity [3] | XRPD pre- and post-DVS [3] | relative stability of Forms I-IV freebases ([4]; RT and 50° C.) | XRPD (tested material) [5] | Purity % a/a (tested material) [5] [% a/a] | Purity % a/a (input material) [5] [% a/a] | further results |
| --- | --- | --- | --- | --- | --- | --- | --- | --- | --- |
| CC(C)(O)CNc1nnc(-c2ccc(Cl)cc2O)c2ccncc12 [Amorphous freebase, 5-chloro-2-(4-((2-hydroxy-2-methylpropyl)amino)pyrido[3,4-d]pyridazin-1-yl)phenol] |  |  |  |  |  |  |  |  | form conversion upon addition of solvent ([1]; 5 vol. acetone): Rapid conversion of the Amorphous freebase to Form I freebase; form conversion upon addition of solvent ([1]; toluene): rapid conversion of the Amorphous freebase to Form II freebase; XRPD, NMR, and HPLC purity analysis after thermal treatment ([2]; heated 10° C./min to 200° C., cooled to 25° C.): decomposition |
| CC(C)(O)CNc1nnc(-c2ccc(Cl)cc2O)c2ccncc12 [Form I freebase, 5-chloro-2-(4-((2-hydroxy-2-methylpropyl)amino)pyrido[3,4-d]pyridazin-1-yl)phenol] | 0.5 | 0.5% | slightly, hygroscopic | remain unchanged | more stable | Form I | 97.94 | 98.06 | XRPD after milling ([6]; None (dry)): Form I; XRPD after dry and solvent-drop milling (overall) ([6]; ball mill): remained largely unchanged; XRPD after milling ([6]; solvent drop 1 vol. Acetone): Form I; XRPD after milling ([6]; solvent drop 1 vol. Isopropanol:water (9:1 vol.)): Form I; XRPD after milling ([6]; solvent drop 1 vol. Methanol (MeOH)): Form I; XRPD after milling ([6]; solvent drop 1 vol. Tetrahydrofuran (THF)): Form I; XRPD after milling ([6]; solvent drop 1 vol. acetonitrile:dimethylformamide (8:2 vol.)): Form I |
| CC(C)(O)CNc1nnc(-c2ccc(Cl)cc2O)c2ccncc12 [Form II freebase, 5-chloro-2-(4-((2-hydroxy-2-methylpropyl)amino)pyrido[3,4-d]pyridazin-1-yl)phenol] | 1.03 | about 1.03% | slightly, hygroscopic | remained unchanged | more stable | Form II | 98.12 | 98.12 | form favored after 7 days ([4]; RT and 50° C., 7 days): favored in most solvent systems; form favored, Form II vs Form I ([4]; overall conclusion of first set): favored over Form I freebase in all solvent systems except acetone:water (7:3 vol.) |
| CC(C)(O)CNc1nnc(-c2ccc(Cl)cc2O)c2ccncc12 [Form III freebase, 5-chloro-2-(4-((2-hydroxy-2-methylpropyl)amino)pyrido[3,4-d]pyridazin-1-yl)phenol] | 0.24 | about 0.24% | slightly, hygroscopic | remained unchanged | converted rapidly | Form III | 99.60 | 99.54 | evidence of form by XRPD after 2 days [4]: no evidence; XRPD after thermal treatment to 210° C. [2]: conversion to Form I freebase |
| CC(C)(O)CNc1nnc(-c2ccc(Cl)cc2O)c2ccncc12 [Form IV freebase, 5-chloro-2-(4-((2-hydroxy-2-methylpropyl)amino)pyrido[3,4-d]pyridazin-1-yl)phenol] | 1.59 | about 1.59% | slightly, hygroscopic | remained unchanged | converted rapidly | Form IV | 98.53 | 99.48 | evidence of form by XRPD after 2 days [4]: no evidence; XRPD after thermal treatment to 210° C. [2]: conversion to Form I freebase |
| CC(C)(O)CNc1nnc(-c2ccc(Cl)cc2O)c2ccncc12 [Pattern B freebase, 5-chloro-2-(4-((2-hydroxy-2-methylpropyl)amino)pyrido[3,4-d]pyridazin-1-yl)phenol] |  |  |  |  |  |  |  |  | form after drying overnight at 50° C. [7]: conversion to Form I freebase; form after drying overnight at 50° C. ([7]; listed as Pattern B): conversion to Form I freebase |
| CC(C)(O)CNc1nnc(-c2ccc(Cl)cc2O)c2ccncc12 [Pattern C freebase, 5-chloro-2-(4-((2-hydroxy-2-methylpropyl)amino)pyrido[3,4-d]pyridazin-1-yl)phenol] |  |  |  |  |  |  |  |  | form after drying overnight at 50° C. [7]: converted to the low-crystalline version of Form I freebase (Pattern A freebase); form after drying overnight at 50° C. ([7]; listed as Pattern C): converted to Pattern A |
